Source: patent publication US20240376100A1 (Redona Therapeutics, Inc., priority 2021, published 2024)
Counter-ions that a name gives are not always drawn.

Each molecule was assayed against PAPD5 enzyme (Homo sapiens, UniProt Q8NDF8) (assay: PAPD5 assay (AMP incorporation onto 3'-terminus of RNA substrate, fluorescence quench)). Conditions: PAPD5 protein 0.3 nM, ATP 50 μM, 30 minutes preincubation, room temperature; read-out: Potency PAPD5 IC50.
Type: biochemical
How it was run: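 Enzyme at 0.3 nM with 50 μM ATP, pH 7.3 HEPES buffer, preincubated with compound 30 minutes at room temperature; 5 nM 5′-fluorescein RNA substrate and 20 nM TAMRA quench probe then added. Initial rates from kinetic fluorescein decrease over ~90 minutes; IC50 by four-parameter fit.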

Sequence of PAPD5 enzyme (Q8NDF8 whole entry): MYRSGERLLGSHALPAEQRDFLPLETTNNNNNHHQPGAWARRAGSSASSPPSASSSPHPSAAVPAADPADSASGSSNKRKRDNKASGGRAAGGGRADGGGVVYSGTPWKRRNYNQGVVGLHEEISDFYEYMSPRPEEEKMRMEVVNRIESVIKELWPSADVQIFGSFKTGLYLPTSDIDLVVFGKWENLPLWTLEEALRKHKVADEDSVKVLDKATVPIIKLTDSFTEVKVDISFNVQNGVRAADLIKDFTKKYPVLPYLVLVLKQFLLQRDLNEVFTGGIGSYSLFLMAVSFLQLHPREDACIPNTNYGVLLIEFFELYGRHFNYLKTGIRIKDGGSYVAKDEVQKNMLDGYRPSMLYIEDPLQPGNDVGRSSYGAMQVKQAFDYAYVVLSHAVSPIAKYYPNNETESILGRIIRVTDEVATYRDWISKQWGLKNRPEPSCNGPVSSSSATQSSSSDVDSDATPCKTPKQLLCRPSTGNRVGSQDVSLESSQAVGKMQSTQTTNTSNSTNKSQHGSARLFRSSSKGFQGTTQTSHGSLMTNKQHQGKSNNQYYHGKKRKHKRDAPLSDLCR

IC50, ≤ 1000 nM:
CN(C)C1CN(c2ccc(-n3cc(C(=O)O)c(=O)c4cc(C#N)c(N5Cc6cccnc6C5)cc43)cn2)C1 [Example 36, 6-cyano-7-(5,7-dihydro-6H-pyrrolo[3,4-b]pyridin-6-yl)-1-(6-(3-(dimethylamino)azetidin-1-yl)pyridin-3-yl)-4-oxo-1,4-dihydroquinoline-3-carboxylic acid]
O=C(O)c1cn(Cc2c[nH]cn2)c2cc(N3Cc4cccnc4C3)c(Cl)cc2c1=O [Example 85, 1-((1H-imidazol-4-yl)methyl)-6-chloro-7-(5,7-dihydro-6H-pyrrolo[3,4-b]pyridin-6-yl)-4-oxo-1,4-dihydroquinoline-3-carboxylic acid]
Cc1cc(N)ncc1-n1cc(C(=O)O)c(=O)c2cc(Cl)c(N3Cc4ccncc4C3)nc21 [Example 159, 1-(6-amino-4-methylpyridin-3-yl)-6-chloro-7-(1,3-dihydro-2H-pyrrolo[3,4-c]pyridin-2-yl)-4-oxo-1,4-dihydro-1,8-naphthyridine-3-carboxylic acid]
Cn1cc(Cn2cc(C(=O)O)c(=O)c3cc(Cl)c(N4Cc5cccnc5C4)cc32)cn1 [Example 124, 6-chloro-7-(5,7-dihydro-6H-pyrrolo[3,4-b]pyridin-6-yl)-1-((1-methyl-1H-pyrazol-4-yl)methyl)-4-oxo-1,4-dihydroquinoline-3-carboxylic acid]
Cc1cc(O)ncc1-n1cc(C(=O)O)c(=O)c2cc(C#N)c(N3Cc4cccnc4C3)cc21 [Example 60, 6-cyano-7-(5,7-dihydro-6H-pyrrolo[3,4-b]pyridin-6-yl)-1-(6-hydroxy-4-methylpyridin-3-yl)-4-oxo-1,4-dihydroquinoline-3-carboxylic acid]
Cc1cc(NC(=O)OC(C)(C)C)ncc1-n1cc(C(=O)O)c(=O)c2cc(Cl)c(N3CCc4cccnc4C3)nc21 [Example 182, 1-(6-((tert-butoxycarbonyl)amino)-4-methylpyridin-3-yl)-6-chloro-7-(5,8-dihydro-1,7-naphthyridin-7(6H)-yl)-4-oxo-1,4-dihydro-1,8-naphthyridine-3-carboxylic acid]
Cc1cc(N(C)CCN2CCCCC2)ncc1-n1cc(C(=O)O)c(=O)c2cc(Cl)c(N3Cc4cccnc4C3)nc21 [Example 177, 6-chloro-7-(5,7-dihydro-6H-pyrrolo[3,4-b]pyridin-6-yl)-1-(4-methyl-6-(methyl(2-(piperidin-1-yl)ethyl)amino)pyridin-3-yl)-4-oxo-1,4-dihydro-1,8-naphthyridine-3-carboxylic acid]
Cc1cc(N)ncc1-n1cc(C(=O)O)c(=O)c2cc(Cl)c(N3Cc4ccccc4C3)nc21 [Example 157, 1-(6-amino-4-methylpyridin-3-yl)-6-chloro-7-(isoindolin-2-yl)-4-oxo-1,4-dihydro-1,8-naphthyridine-3-carboxylic acid]
COc1ccccc1Cn1cc(C(=O)O)c(=O)c2cc(Cl)c(N3Cc4cccnc4C3)nc21 [Example 41, 6-chloro-7-(5,7-dihydro-6H-pyrrolo[3,4-b]pyridin-6-yl)-1-(2-methoxybenzyl)-4-oxo-1,4-dihydro-1,8-naphthyridine-3-carboxylic acid]
COc1cccc2c1CN(c1nc3c(cc1Cl)c(=O)c(C(=O)O)cn3-c1cnc(N)cc1C)C2 [Example 178, 1-(6-amino-4-methylpyridin-3-yl)-6-chloro-7-(4-methoxyisoindolin-2-yl)-4-oxo-1,4-dihydro-1,8-naphthyridine-3-carboxylic acid]
COc1cnc(-n2cc(C(=O)O)c(=O)c3cc(Cl)c(N4Cc5cccnc5C4)nc32)cn1 [Example 74, 6-chloro-7-(5,7-dihydro-6H-pyrrolo[3,4-b]pyridin-6-yl)-1-(5-methoxypyrazin-2-yl)-4-oxo-1,4-dihydro-1,8-naphthyridine-3-carboxylic acid]
COc1ccc2c(c1)CN(c1cc3c(cc1F)c(=O)c(C(=O)O)cn3-c1ccc(O)cc1F)C2 [Example 14, 6-fluoro-1-(2-fluoro-4-hydroxyphenyl)-7-(5-methoxyisoindolin-2-yl)-4-oxo-1,4-dihydroquinoline-3-carboxylic acid]
Cc1cc(N2CC(N(C)C)C2)ncc1-n1cc(C(=O)O)c(=O)c2cc(Cl)c(N3Cc4cccnc4C3)nc21 [Example 188, 6-chloro-7-(5,7-dihydro-6H-pyrrolo[3,4-b]pyridin-6-yl)-1-(6-(3-(dimethylamino)azetidin-1-yl)-4-meth-ylpyridin-3-yl)-4-oxo-1,4-dihydro-1,8-naphthyridine-3-carboxylic acid]
O=C(O)c1cn(-c2ccc(O)cc2F)c2cc(N3Cc4cccnc4C3)c(F)cc2c1=O [Example 29, 7-(5,7-dihydro-6H-pyrrolo[3,4-b]pyridin-6-yl)-6-fluoro-1-(2-fluoro-4-hydroxyphenyl)-4-oxo-1,4-dihydroquinoline-3-carboxylic acid]
Cc1cc(N)ncc1-n1cc(C(=O)O)c(=O)c2cc(Cl)c(N3Cc4cccc(F)c4C3)nc21 [Example 158, 1-(6-amino-4-methylpyridin-3-yl)-6-chloro-7-(4-fluoroisoindolin-2-yl)-4-oxo-1,4-dihydro-1,8-naphthyridine-3-carboxylic acid]
CCOC(=O)c1cn(-c2ccc(Cl)nc2)c2cc(N3Cc4cccnc4C3)c(Cl)cc2c1=O [Example 90, Ethyl 6-chloro-1-(6-chloropyridin-3-yl)-7-(5,7-dihydro-6H-pyrrolo[3,4-b]pyridin-6-yl)-4-oxo-1,4-dihydroquinoline-3-carboxylate]
Cc1cc(N)ncc1-n1cc(C(=O)O)c(=O)c2cc(Cl)c(-n3ccnc3)nc21 [Example 152, 1-(6-amino-4-methylpyridin-3-yl)-6-chloro-7-(1H-imidazol-1-yl)-4-oxo-1,4-dihydro-1,8-naphthyridine-3-carboxylic acid]
Cc1nn(-c2cc3c(cc2F)c(=O)c(C(=O)O)cn3-c2ccc(O)cc2F)cc1Br [Example 11, 7-(4-bromo-3-methyl-1H-pyrazol-1-yl)-6-fluoro-1-(2-fluoro-4-hydroxyphenyl)-4-oxo-1,4-dihydroquinoline-3-carboxylic acid]
Cc1cc(N2CCC2)ncc1-n1cc(C(=O)O)c(=O)c2cc(F)c(N3Cc4cccnc4C3)nc21 [Example 183, 1-(6-(azetidin-1-yl)-4-methylpyridin-3-yl)-7-(5,7-dihydro-6H-pyrrolo[3,4-b]pyridin-6-yl)-6-fluoro-4-oxo-1,4-dihydro-1,8-naphthyridine-3-carboxylic acid]
O=C(O)c1cn(-c2ccc(O)cc2F)c2cc(N3Cc4cccc(F)c4C3)c(F)cc2c1=O [Example 15, 6-fluoro-1-(2-fluoro-4-hydroxyphenyl)-7-(4-fluoroisoindolin-2-yl)-4-oxo-1,4-dihydroquinoline-3-carboxylic acid]
COc1cnc(-n2cc(C(=O)O)c(=O)c3cc(F)c(N4Cc5cccnc5C4)cc32)cn1 [Example 75, 7-(5,7-dihydro-6H-pyrrolo[3,4-b]pyridin-6-yl)-6-fluoro-1-(5-methoxypyrazin-2-yl)-4-oxo-1,4-dihydroquinoline-3-carboxylic acid]
COCCN(C)c1cc(C)c(-n2cc(C(=O)O)c(=O)c3cc(Cl)c(N4Cc5cccnc5C4)nc32)cn1 [Example 143, 6-chloro-7-(5,7-dihydro-6H-pyrrolo[3,4-b]pyridin-6-yl)-1-(6-((2-methoxyethyl)(methyl)amino)-4-methylpyridin-3-yl)-4-oxo-1,4-dihydro-1,8-naphthyridine-3-carboxylic acid]
Cc1cc(N)ncc1-n1cc(C(=O)O)c(=O)c2cc(Cl)c(N3CCc4cnccc4C3)nc21 [Example 197, 1-(6-amino-4-methylpyridin-3-yl)-6-chloro-7-(3,4-dihydro-2,6-naphthyridin-2(1H)-yl)-4-oxo-1,4-dihydro-1,8-naphthyridine-3-carboxylic acid]
Cc1cc(N)ncc1-n1cc(C(=O)O)c(=O)c2cc(F)c(N3Cc4cccnc4C3)cc21 [Example 79, 1-(6-amino-4-methylpyridin-3-yl)-7-(5,7-dihydro-6H-pyrrolo[3,4-b]pyridin-6-yl)-6-fluoro-4-oxo-1,4-dihydroquinoline-3-carboxylic acid TFA salt]
O=C(O)c1cn(-c2ccc(O)cc2F)c2cc(-n3ncc4cc(Cl)cc(Cl)c43)c(F)cc2c1=O [Example 10, 7-(5,7-dichloro-1H-indazol-1-yl)-6-fluoro-1-(2-fluoro-4-hydroxyphenyl)-4-oxo-1,4-dihydroquinoline-3-carboxylic acid]
O=C(O)c1cn(-c2ccc(O)cc2F)c2cc(N3Cc4ccccc4C3)c(F)cc2c1=O [Example 32, 6-fluoro-1-(2-fluoro-4-hydroxyphenyl)-7-(isoindolin-2-yl)-4-oxo-1,4-dihydroquinoline-3-carboxylic acid]
Cc1cc(N(C)C)ncc1-n1cc(C(=O)O)c(=O)c2cc(F)c(N3Cc4cccnc4C3)cc21 [Example 86, 7-(5,7-dihydro-6H-pyrrolo[3,4-b]pyridin-6-yl)-1-(6-(dimethylamino)-4-methylpyridin-3-yl)-6-fluoro-4-oxo-1,4-dihydroquinoline-3-carboxylic acid]
Cc1cc(N)ncc1-n1cc(C(=O)O)c(=O)c2cc(C#N)c(N3Cc4cccnc4C3)cc21 [Example 80, 1-(6-amino-4-methylpyridin-3-yl)-6-cyano-7-(5,7-dihydro-6H-pyrrolo[3,4-b]pyridin-6-yl)-4-oxo-1,4-dihydroquinoline-3-carboxylic acid]
